The source of these data is ChEMBL document CHEMBL1201862, “PubChem BioAssay data set” (2004).

Activity calls are given as the source filed them.

Assay type in all cases: functional
The target in assay [1] is Cyclin-dependent kinase 19 (Homo sapiens, UniProt Q9BWU1). Put plainly: Navigating the Kinome. Panel member name: CDC2L6.
The target of assay [2] is Cell division cycle 7-related protein kinase (Homo sapiens, UniProt O00311).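 Also: value obtained from a kinome-wide kinase panel.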
In the next assay the target is Activin receptor type-1 (Homo sapiens, UniProt Q04771). Put plainly: Navigating the Kinome. Panel member name: ACVR1.
The target of a further assay is Focal adhesion kinase 1 (Homo sapiens, UniProt Q05397).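 Also: measured as one member of a kinome panel.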
The target in assay [3] is Vascular endothelial growth factor receptor 2 (Homo sapiens, UniProt P35968).
Assay [4] addresses Leukocyte tyrosine kinase receptor (Homo sapiens, UniProt P29376). The experiment in a line: Navigating the Kinome. Panel member name: LTK.
Assay [5] deals with Serine/threonine-protein kinase pim-1 (Homo sapiens, UniProt P11309).
For assay [6], the target named is Tyrosine-protein kinase Lck (Homo sapiens, UniProt P06239).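 Also: lck was assayed as one member of a kinase panel.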
For assay [7], the target named is Serine/threonine-protein kinase TAO1 (Homo sapiens, UniProt Q7L7X3).
Assay [8] concerns the target Serine/threonine-protein kinase PAK 4 (Homo sapiens, UniProt O96013).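 Also: value obtained within a kinome profiling panel in which PAK4 was one of the panel members.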
The target of assay [9] is Ribosomal protein S6 kinase alpha-3 (Homo sapiens, UniProt P51812).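 Also: measured within a kinome-wide profiling panel.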
For assay [10], the target named is Tyrosine-protein kinase BTK (Homo sapiens, UniProt Q06187).
In assay [11] the target is Protein kinase C theta type (Homo sapiens, UniProt Q04759). Put plainly: Navigating the Kinome. Panel member name: PRKCQ.
Assay [12] deals with Hepatocyte growth factor receptor (Homo sapiens, UniProt P08581).
Assay [13] addresses Dual specificity tyrosine-phosphorylation-regulated kinase 1B (Homo sapiens, UniProt Q9Y463). The experiment in a line: Navigating the Kinome. Panel member name: DYRK1B.
The target in assay [14] is Serine/threonine-protein kinase TBK1 (Homo sapiens, UniProt Q9UHD2). Put plainly: Navigating the Kinome. Panel member name: TBK1.
Assay [15] addresses Death-associated protein kinase 3 (Homo sapiens, UniProt O43293).
For assay [16], the target named is Dual specificity protein kinase CLK4 (Homo sapiens, UniProt Q9HAZ1).
In assay [17] the target is cAMP-dependent protein kinase catalytic subunit alpha (Homo sapiens, UniProt P17612).
Assay [18] concerns the target Tyrosine-protein kinase receptor TYRO3 (Homo sapiens, UniProt Q06418).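 Also: TYRO3 value obtained as one member of a kinome-wide profiling panel.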
For assay [19], the target named is Dual specificity mitogen-activated protein kinase kinase 2 (Homo sapiens, UniProt P36507). The experiment in a line: Navigating the Kinome. Panel member name: MAP2K2.
Assay [20] deals with Glycogen synthase kinase-3 beta (Homo sapiens, UniProt P49841).
In assay [21] the target is Tyrosine-protein kinase JAK3 (Homo sapiens, UniProt P52333).
In assay [22] the target is Calcium/calmodulin-dependent protein kinase type II subunit alpha (Homo sapiens, UniProt Q9UQM7). The experiment in a line: Navigating the Kinome. Panel member name: CAMK2A.
Assay [23] has as its target Mitogen-activated protein kinase 14 (Homo sapiens, UniProt Q16539).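 Also: part of a kinome-wide panel, MAPK14 entry.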
Assay [24] addresses Glycogen synthase kinase-3 alpha (Homo sapiens, UniProt P49840).
In assay [25] the target is Tyrosine-protein kinase Fyn (Homo sapiens, UniProt P06241).
In assay [26] the target is Dual specificity tyrosine-phosphorylation-regulated kinase 1A (Homo sapiens, UniProt Q13627).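 Also: measured against DYRK1A as one member of a broad kinome profiling panel.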
Assay [27] concerns the target Macrophage-stimulating protein receptor (Homo sapiens, UniProt Q04912). Put plainly: Navigating the Kinome. Panel member name: MST1R.
Assay [28] concerns the target Proto-oncogene tyrosine-protein kinase receptor Ret (Homo sapiens, UniProt P07949).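 Also: measured within a kinome-wide profiling panel, RET as the panel member.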
Assay [29] concerns the target Dual specificity mitogen-activated protein kinase kinase 1 (Homo sapiens, UniProt Q02750). Put plainly: Navigating the Kinome. Panel member name: MAP2K1.
Assay [30] addresses Mitogen-activated protein kinase kinase kinase kinase 2 (Homo sapiens, UniProt Q12851).
For assay [31], the target named is Mitogen-activated protein kinase 9 (Homo sapiens, UniProt P45984).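 Also: value from a kinome panel profiling assay, MAPK9 panel entry.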
The target in assay [32] is BDNF/NT-3 growth factors receptor (Homo sapiens, UniProt Q16620).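 Also: NTRK2 measured as one member of a broad kinome-wide kinase profiling panel.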
Assay [33] addresses Cyclin-dependent kinase 8 (Homo sapiens, UniProt P49336). Put plainly: Navigating the Kinome. Panel member name: CDK8.
Assay [34] deals with Leucine-rich repeat serine/threonine-protein kinase 2 (Homo sapiens, UniProt Q5S007).
The target in assay [35] is Rho-associated protein kinase 1 (Homo sapiens, UniProt Q13464).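 Also: measured within a broad kinome-wide panel profiling many kinases.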
Assay [36] addresses ALK tyrosine kinase receptor (Homo sapiens, UniProt Q9UM73).
Assay [37] concerns the target Casein kinase I isoform alpha (Homo sapiens, UniProt P48729).
Assay [38] concerns the target Cyclin-dependent kinase 7 (Homo sapiens, UniProt P50613).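 Also: value comes from a kinome-wide kinase profiling panel in which CDK7 is one member.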
The target in assay [39] is 5'-AMP-activated protein kinase catalytic subunit alpha-1 (Homo sapiens, UniProt Q13131).
Assay [40] has as its target G protein-coupled receptor kinase 5 (Homo sapiens, UniProt P34947). Put plainly: Navigating the Kinome. Panel member name: GPRK5.
For assay [41], the target named is Vascular endothelial growth factor receptor 1 (Homo sapiens, UniProt P17948).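 Also: measured within a kinome-wide profiling panel, FLT1 as the panel member.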
Assay [42] deals with Platelet-derived growth factor receptor alpha (Homo sapiens, UniProt P16234). Put plainly: Navigating the Kinome. Panel member name: PDGFRA.
For assay [43], the target named is Inhibitor of nuclear factor kappa-B kinase subunit epsilon (Homo sapiens, UniProt Q14164). The experiment in a line: Navigating the Kinome. Panel member name: IKBKE.
Assay [44] has as its target Macrophage colony-stimulating factor 1 receptor (Homo sapiens, UniProt P07333).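 Also: value comes from the Navigating the Kinome screening panel, CSF1R member.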
Assay [45] addresses Mitogen-activated protein kinase 8 (Homo sapiens, UniProt P45983).
A further assay has as its target Activated CDC42 kinase 1 (Homo sapiens, UniProt Q07912). The experiment in a line: Navigating the Kinome. Panel member name: ACK1.
The target in assay [46] is Tyrosine-protein kinase JAK2 (Homo sapiens, UniProt O60674).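 Also: JAK2 tested as one member of a kinase panel.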
The target of assay [47] is Serine/threonine-protein kinase D3 (Homo sapiens, UniProt O94806).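 Also: determined within a kinase panel screen, with PRKCN as the panel member.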
Assay [48] deals with Fibroblast growth factor receptor 1 (Homo sapiens, UniProt P11362).
Assay [49] has as its target Dual specificity protein kinase CLK2 (Homo sapiens, UniProt P49760).
Assay [50] has as its target cAMP-dependent protein kinase catalytic subunit PRKX (Homo sapiens, UniProt P51817).
The target of assay [51] is Receptor-type tyrosine-protein kinase FLT3 (Homo sapiens, UniProt P36888).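 Also: FLT3 was tested as one member of a kinome-wide kinase panel.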
In assay [52] the target is Insulin-like growth factor 1 receptor (Homo sapiens, UniProt P08069). Put plainly: Navigating the Kinome. Panel member name: IGF1R.
The target of assay [53] is Mitogen-activated protein kinase kinase kinase kinase 4 (Homo sapiens, UniProt O95819).
For assay [54], the target named is Protein kinase C gamma type (Homo sapiens, UniProt P05129).
For assay [55], the target named is Cyclin-dependent kinase 1 (Homo sapiens, UniProt P06493).
Assay [56] deals with MAP kinase-activated protein kinase 3 (Homo sapiens, UniProt Q16644).
In assay [57] the target is Protein kinase C zeta type (Homo sapiens, UniProt Q05513).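 Also: measured as one member of a broad kinase profiling panel.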
The target of assay [58] is Lymphokine-activated killer T-cell-originated protein kinase (Homo sapiens, UniProt Q96KB5).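 Also: value comes from a kinase panel screen in which TOPK was one of the panel members.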

Sequence of Focal adhesion kinase 1 (Q05397 whole entry): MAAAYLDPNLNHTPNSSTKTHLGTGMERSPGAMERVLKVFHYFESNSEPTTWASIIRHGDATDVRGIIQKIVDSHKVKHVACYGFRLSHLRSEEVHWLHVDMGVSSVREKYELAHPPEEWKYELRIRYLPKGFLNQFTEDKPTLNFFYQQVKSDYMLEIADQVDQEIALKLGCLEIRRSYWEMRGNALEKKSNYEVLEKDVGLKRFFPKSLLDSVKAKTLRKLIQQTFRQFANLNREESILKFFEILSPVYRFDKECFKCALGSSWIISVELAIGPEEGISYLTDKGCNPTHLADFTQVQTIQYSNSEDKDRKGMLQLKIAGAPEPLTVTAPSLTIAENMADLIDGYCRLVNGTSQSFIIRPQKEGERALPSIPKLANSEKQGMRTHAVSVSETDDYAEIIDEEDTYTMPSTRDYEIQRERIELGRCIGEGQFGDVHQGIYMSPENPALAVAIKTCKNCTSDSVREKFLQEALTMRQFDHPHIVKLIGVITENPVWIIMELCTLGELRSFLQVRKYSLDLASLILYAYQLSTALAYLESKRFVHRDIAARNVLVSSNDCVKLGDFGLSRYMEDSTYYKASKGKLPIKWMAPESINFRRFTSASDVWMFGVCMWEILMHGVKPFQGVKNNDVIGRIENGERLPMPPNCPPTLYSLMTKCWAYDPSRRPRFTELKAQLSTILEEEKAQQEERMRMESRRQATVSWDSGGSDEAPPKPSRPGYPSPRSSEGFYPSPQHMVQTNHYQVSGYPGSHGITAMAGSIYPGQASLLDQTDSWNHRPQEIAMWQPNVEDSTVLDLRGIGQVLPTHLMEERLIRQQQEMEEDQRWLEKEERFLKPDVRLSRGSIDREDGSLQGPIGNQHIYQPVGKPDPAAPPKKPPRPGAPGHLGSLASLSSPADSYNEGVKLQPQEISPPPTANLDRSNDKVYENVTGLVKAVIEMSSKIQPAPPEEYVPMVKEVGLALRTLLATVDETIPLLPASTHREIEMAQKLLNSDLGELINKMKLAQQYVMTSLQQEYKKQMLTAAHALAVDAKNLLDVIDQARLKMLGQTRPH
Sequence of Serine/threonine-protein kinase PAK 4 (O96013 whole entry): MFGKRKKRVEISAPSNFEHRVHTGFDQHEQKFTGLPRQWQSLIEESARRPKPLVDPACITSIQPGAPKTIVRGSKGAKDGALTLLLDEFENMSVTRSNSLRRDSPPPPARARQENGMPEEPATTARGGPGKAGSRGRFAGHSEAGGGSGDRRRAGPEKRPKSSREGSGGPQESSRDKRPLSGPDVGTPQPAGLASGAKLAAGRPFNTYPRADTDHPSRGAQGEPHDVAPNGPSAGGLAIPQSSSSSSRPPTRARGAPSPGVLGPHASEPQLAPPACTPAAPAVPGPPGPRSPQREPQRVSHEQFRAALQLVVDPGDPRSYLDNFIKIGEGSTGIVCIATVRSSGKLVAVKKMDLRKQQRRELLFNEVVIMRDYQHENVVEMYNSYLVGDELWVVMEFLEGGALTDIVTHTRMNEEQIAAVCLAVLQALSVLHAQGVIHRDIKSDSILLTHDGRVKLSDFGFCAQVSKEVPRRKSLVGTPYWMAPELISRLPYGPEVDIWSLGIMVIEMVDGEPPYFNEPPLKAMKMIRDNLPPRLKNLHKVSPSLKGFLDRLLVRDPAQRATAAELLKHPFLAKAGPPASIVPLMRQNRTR
Sequence of Macrophage-stimulating protein receptor (Q04912 25-304 limits assumed): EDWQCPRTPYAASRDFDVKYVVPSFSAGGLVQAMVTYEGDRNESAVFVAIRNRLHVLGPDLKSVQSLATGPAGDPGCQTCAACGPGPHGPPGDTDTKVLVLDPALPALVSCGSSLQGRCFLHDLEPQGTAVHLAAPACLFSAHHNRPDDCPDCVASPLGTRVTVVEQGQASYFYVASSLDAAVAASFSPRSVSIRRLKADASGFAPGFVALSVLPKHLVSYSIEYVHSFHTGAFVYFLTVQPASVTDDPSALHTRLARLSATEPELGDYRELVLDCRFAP
Sequence of Macrophage-stimulating protein receptor (Q04912 310-1400 limits assumed): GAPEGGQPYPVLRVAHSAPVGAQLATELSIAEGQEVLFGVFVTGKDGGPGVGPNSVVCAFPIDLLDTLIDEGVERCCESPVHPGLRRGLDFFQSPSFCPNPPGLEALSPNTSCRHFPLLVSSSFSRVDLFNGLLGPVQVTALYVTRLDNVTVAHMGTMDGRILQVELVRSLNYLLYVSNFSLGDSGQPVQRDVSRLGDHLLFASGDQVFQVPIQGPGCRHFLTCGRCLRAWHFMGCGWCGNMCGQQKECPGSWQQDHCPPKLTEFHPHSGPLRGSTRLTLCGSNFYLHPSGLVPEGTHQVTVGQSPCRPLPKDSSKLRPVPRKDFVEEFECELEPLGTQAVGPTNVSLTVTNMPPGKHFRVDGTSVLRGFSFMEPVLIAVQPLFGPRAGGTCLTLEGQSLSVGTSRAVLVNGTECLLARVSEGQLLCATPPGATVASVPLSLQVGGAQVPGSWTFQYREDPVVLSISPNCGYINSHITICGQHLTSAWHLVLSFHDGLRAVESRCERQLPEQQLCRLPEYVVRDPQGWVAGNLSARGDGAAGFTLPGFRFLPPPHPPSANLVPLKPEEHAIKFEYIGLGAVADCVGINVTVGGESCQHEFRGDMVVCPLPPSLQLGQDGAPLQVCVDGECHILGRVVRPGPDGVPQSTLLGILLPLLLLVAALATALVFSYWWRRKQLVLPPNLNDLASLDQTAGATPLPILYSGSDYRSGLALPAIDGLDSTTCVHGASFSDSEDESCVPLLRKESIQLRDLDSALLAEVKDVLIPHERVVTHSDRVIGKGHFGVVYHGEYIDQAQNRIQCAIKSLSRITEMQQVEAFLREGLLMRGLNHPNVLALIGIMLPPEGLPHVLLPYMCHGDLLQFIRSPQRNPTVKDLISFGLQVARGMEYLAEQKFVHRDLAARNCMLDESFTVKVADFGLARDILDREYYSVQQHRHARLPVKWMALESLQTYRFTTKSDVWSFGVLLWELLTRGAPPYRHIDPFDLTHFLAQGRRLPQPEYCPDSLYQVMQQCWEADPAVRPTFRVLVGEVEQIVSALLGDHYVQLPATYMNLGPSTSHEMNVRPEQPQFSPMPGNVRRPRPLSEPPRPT
Sequence of Ribosomal protein S6 kinase alpha-3 (P51812 whole entry): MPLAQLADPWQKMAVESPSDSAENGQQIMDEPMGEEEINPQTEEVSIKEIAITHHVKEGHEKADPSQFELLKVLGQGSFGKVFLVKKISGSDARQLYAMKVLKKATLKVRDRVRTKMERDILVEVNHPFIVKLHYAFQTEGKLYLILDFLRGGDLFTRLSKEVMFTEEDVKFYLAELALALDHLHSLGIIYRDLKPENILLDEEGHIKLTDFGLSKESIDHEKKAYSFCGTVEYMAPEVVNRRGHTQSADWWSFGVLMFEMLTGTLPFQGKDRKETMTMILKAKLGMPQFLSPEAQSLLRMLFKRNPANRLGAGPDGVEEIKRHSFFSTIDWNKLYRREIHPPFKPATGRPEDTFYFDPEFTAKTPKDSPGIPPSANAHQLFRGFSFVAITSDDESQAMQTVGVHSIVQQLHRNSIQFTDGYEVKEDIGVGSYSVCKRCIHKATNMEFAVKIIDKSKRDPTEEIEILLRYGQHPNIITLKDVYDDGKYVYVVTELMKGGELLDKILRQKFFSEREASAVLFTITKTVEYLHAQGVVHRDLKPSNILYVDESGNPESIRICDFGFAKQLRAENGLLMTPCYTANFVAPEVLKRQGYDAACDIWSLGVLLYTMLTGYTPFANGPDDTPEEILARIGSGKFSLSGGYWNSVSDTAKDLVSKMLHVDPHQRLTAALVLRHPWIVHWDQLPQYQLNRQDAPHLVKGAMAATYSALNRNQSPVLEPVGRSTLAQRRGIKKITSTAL
Sequence of Cyclin-dependent kinase 19 (Q9BWU1 whole entry): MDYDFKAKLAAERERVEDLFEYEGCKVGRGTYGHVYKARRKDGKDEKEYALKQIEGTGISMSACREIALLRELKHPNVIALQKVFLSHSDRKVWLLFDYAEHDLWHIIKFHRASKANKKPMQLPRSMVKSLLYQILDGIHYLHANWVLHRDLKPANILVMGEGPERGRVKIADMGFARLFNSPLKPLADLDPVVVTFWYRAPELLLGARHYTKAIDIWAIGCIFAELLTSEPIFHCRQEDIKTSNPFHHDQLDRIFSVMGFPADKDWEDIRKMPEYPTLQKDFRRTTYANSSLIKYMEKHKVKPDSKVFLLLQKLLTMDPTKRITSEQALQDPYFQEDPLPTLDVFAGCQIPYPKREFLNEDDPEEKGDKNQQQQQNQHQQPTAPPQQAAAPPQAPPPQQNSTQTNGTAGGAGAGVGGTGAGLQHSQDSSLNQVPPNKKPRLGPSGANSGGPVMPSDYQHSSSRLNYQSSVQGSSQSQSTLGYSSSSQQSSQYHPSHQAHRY
Sequence of G protein-coupled receptor kinase 5 (P34947 whole entry): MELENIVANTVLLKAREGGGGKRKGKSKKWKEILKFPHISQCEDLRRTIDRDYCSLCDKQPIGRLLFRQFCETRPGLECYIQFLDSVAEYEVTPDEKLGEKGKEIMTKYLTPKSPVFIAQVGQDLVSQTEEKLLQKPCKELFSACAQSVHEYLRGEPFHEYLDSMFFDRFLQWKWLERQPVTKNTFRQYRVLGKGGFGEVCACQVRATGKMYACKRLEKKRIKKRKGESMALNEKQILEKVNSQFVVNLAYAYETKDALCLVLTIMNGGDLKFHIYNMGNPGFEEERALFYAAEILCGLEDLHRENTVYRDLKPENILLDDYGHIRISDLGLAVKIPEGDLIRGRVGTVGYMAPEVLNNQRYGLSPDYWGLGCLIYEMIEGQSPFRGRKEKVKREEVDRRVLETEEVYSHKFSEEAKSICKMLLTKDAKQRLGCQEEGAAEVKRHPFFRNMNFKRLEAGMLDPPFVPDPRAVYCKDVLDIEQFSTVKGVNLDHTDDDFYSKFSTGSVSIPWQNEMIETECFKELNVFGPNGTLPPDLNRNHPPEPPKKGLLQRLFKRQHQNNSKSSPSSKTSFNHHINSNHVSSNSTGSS

Broadly, the Ki is a measure of affinity in units of concentration, obtained from inhibition or displacement. Regarding `Cn1ncc2cc(Nc3ccnc(N)n3)ccc21`, the values for the Ki in [1] and in assay [2] were > 100000 nM (inactive) and 398 nM (active), respectively.

On to `CC(C)Oc1cc(Nc2nc(NC(C)c3ccc(F)cn3)ncc2Cl)n[nH]1` (stereo unspecified), for which the Ki on Activin receptor type-1 was 1580 nM (active); on Focal adhesion kinase 1 it was 31.6 nM (active); in assay [3], 501 nM (active); in assay [4], 31.6 nM (active); in [5], > 6310 nM (inactive); in [6] it was 398 nM (active). Further, the inhibitory constant (Ki) in [7] was 2510 nM (active); in assay [8], > 5010 nM (inactive); in [9], > 3980 nM (inactive); in [10], 1000 nM (active); in assay [11], 501 nM (active); in assay [12], > 2510 nM (inactive). Moreover, the Ki is > 2510 nM (inactive) in assay [13]; > 3160 nM (inactive) in assay [14]; > 5010 nM (inactive) in [15]; 501 nM (active) in [16]; > 1260 nM (inactive) in assay [17]; > 3160 nM (inactive) in assay [18]. The Ki in assay [19] was > 3980 nM (inactive); in assay [20], > 3980 nM (inactive); in assay [21], 2000 nM (active); in assay [22], 316 nM (active); in assay [23] it was > 3980 nM (inactive); in assay [24], > 3980 nM (inactive). Also, the inhibitory constant (Ki) was 398 nM (active) in [25]; > 2000 nM (inactive) in [26]; 200 nM (active) in assay [27]; 39.8 nM (active) in assay [28]; > 3160 nM (inactive) in assay [29]; > 2510 nM (inactive) in assay [30]. The Ki was > 3980 nM (inactive) in assay [31]; 1 nM (active) in assay [32]; > 3980 nM (inactive) in [33]; 1000 nM (active) in [34]; 2000 nM (active) in assay [35]; 126 nM (active) in assay [36]. Further, the Ki is 1000 nM (active) in assay [37]; 316 nM (active) in [38]; 158 nM (active) in [39]; > 3980 nM (inactive) in [40]; 1580 nM (active) in [41]; > 2510 nM (inactive) in assay [42]. Further, the Ki in [43] is > 3160 nM (inactive); in assay [44], > 2510 nM (inactive); in [45], > 5010 nM (inactive); at Activated CDC42 kinase 1, 25.1 nM (active); in assay [46] it was 100 nM (active); in [47], > 3980 nM (inactive). Besides, the Ki in assay [48] was 25.1 nM (active); in assay [49] it was 2510 nM (active); in assay [50], > 3160 nM (inactive); in assay [51], 316 nM (active); in [52] it was 1260 nM (active); in assay [53], > 5010 nM (inactive).

`Oc1cccc(-c2nc(N3CCOCC3)c3oc4ncccc4c3n2)c1` [PI-103]: the Ki is > 7940 nM (inactive) in assay [54]; > 7940 nM (inactive) in assay [55]; > 10000 nM (inactive) in [56]; > 7940 nM (inactive) in [57]; > 10000 nM (inactive) in assay [58].
